Measurements: ChEMBL document CHEMBL1133153, “Antitumour benzothiazoles. Part 10: the synthesis and antitumour activity of benzothiazole substituted quinol derivatives” (Bioorg Med Chem Lett, 2000)

Experiments:
Type in all cases: functional, cell-based
HT-29 = assay: The compound was tested in vitro for its antitumor activity against human colon cancer cell line HT-29
HCT-116 = assay: The compound was tested in vitro for its antitumor activity against human colon cancer cell line HCT116
MCF7 = assay: The compound was tested in vitro for its antitumor activity against human breast cell line MCF-7
MDA-MB-468 = assay: The compound was tested in vitro for its antitumor activity against human breast cell line MDA-468

Row | IC50 (HT-29) | IC50 (HCT-116) | IC50 (MCF7) | IC50 (MDA-MB-468) | SMILES
1 | 83.7 µM | > 100 µM | 53.4 µM | 0.14 µM | Oc1ccc(-c2nc3ccccc3s2)cc1
2 | 78.7 µM | > 100 µM | 51.8 µM | 0.05 µM | Oc1cccc(-c2nc3ccccc3s2)c1
